According to the NIST ThermoML archive (doi:10.1016/j.tca.2010.09.010):

Conditions: Crystal, TG

[Cd+2].[I-].[I-] [cadmium iodide (CdI2)]
Conditions	vapor or sublimation pressure [kPa]
740 K	0.2888
745 K	0.3252
750 K	0.3668
755 K	0.4124
760 K	0.4631
765 K	0.5198
770 K	0.5826
